# Target: T1, stearoyl-CoA desaturase (SCD) (Rattus norvegicus, UniProt P07308)
# T1 construct: 0.032 mg/ml rat liver microsomes (total protein content); from tissue
# T1 sequence (P07308 1-358): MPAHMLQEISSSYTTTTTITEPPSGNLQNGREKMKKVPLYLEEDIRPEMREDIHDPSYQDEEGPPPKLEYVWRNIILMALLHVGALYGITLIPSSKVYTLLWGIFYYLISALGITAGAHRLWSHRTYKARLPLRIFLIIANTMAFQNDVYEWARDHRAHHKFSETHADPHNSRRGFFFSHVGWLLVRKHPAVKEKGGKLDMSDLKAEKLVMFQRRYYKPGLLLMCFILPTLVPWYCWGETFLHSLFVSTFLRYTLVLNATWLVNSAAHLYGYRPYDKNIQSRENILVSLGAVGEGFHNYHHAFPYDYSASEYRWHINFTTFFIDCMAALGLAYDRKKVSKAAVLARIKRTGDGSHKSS
# Assay: Tritium release screening assay for inhibition of stearoyl-CoA desaturase activity in rat liver microsomes
# Type: biochemical, rat (Male Sprague-Dawley)
# Details: [3H]-stearoyl-CoA, 20 min pre-incubation, 20 min reaction, 384- or 96-well format
# Description: Another measure of SCD activity was introduced by Talamo and Bloch in 1969 [Talamo & Bloch (1969) Anal. Biochem. 29, 300-304]. This method is based on the quantification of a second product of the desaturase reaction, i.e. the water molecule that is released in the desaturase reaction. The quantification is based on the use of a long chain acyl-CoA substrate, e.g. stearoyl-CoA, that is specifically labeled with tritium in positions 9 and 10 of the carbon chain such that the released water is also tritiated ([^3H]-H2O). The remaining [^3H]-stearoyl-CoA as well as the product [^3H]-oleyl-CoA must then be separated from the solution before the tritiated water content can be measured by means of liquid scintillation. Talamo and Bloch acid precipitated the long chain acyl-CoAs followed by filtration to achieve this separation, but this separation can also be achieved by means of centrifugation instead of filtration [Johnson & Guhr (1971) Lipids 6, 78-84]. An alternative procedure that involves precipitation by ethanol and activated charcoal followed by centrifugation has also been described [Shanklin and Somerville (1991) Proc. Natl. Acad. Sci. USA 88, 2510-2514]. Based on these studies it is clear that near perfect separation is required for optimal assay performance. When applying this assay it is important to recognize that the apparent desaturation rate is impacted by isotope effects as described by Johnson and Gurr in 1971 [Johnson & Guhr (1971) Lipids 6, 78-84]. Thus whereas the assay serves as an excellent measure of relative SCD activity it must be calibrated using other methods when absolute measures of enzyme activity are needed. The pros and cons of this assay have also been summarized in the literature [Gurr & Robinson (1972) Anal. Biochem. 47, 146-156]. An abundant source of stearoyl-CoA desaturase activity can be found in microsomal preparations from the liver of rats that have been subjected to a fasting-refeeding procedure on a low fat/high carbohydrate diet [reviewed in Ntambi (1999) J. Lipid Res. 40, 1549-1558]. However, microsomal preparations are not a pure source of SCD activity and this means that the added stearoyl-CoA substrate is subject also to other enzymatic processes. It is therefore essential to include reagents that allow regeneration of the stearoyl-CoA substrate as described by Bertram and Erwin [Bertram & Erwin (1981) J. Protozool. 8, 127-131].
# The tritium release assay for the measurement of SCD activity is thus well documented in the literature. Descriptions on how these finding have been used to produce standard screening assays in 96-well plates are also available [Brownlie, Hayden, Attie, Ntambi, Gray-Keller, & Miyazaki (2001) WO 01/62954; Wu, Gallipoli, Gallagher, & Gardell (2004) WO 2004/04776]. […]
row,IC50,Compound
1,700 ± 110 nM,"CCOCCCNC(=O)c1cnn2c(C)c(Cc3cccc(F)c3)c(C)nc12 [Example 24, N-(3-ethoxypropyl)-6-(3-fluorobenzyl)-5,7-dimethylpyrazolo[1,5-a]-pyrimidine-3-carboxamide]"
2,140 ± 67 nM,"Cc1nc2c(C(=O)NCC3CCCO3)cnn2c(C)c1Cc1cccc(Br)c1 (stereo not shown) [6-(3-bromobenzyl)-5,7-dimethyl-N-(tetrahydrofuran-2-ylmethyl)pyrazolo[1,5-a]pyrimidine-3-carboxamide]"
3,830 ± 240 nM,"COc1cccc(Cc2c(C)nc3c(C(=O)NCCNC(C)=O)cnn3c2C)c1 [Example 8, N-[2-(Acetylamino)ethyl]-6-(3-methoxybenzyl)-5,7-dimethylpyrazolo-[1,5-a]pyrimidine-3-carboxamide]"
4,1000 ± 400 nM,"COCCNC(=O)c1cnn2c(C)c(Cc3ccccc3)c(C)nc12 [Example 1, 6-benzyl-N-(2-methoxyethyl)-5,7-dimethylpyrazolo[1,5-a]pyrimidine-3-carboxamide]"

# Source: patent publication US20080221129A1, “New compounds” (priority 2006, published 2008)
